Assays:
Format in all cases: cell-based
[1] = test system: human oral cancer OECM-1 cells; experiment: Viability of human oral cancer OECM-1 cells, Trypan blue exclusion; conditions: 5˜20 μg/ml, 24 h
Protocol: (§1) Human oral cancer cell line SAS cells (FIG. 1A) or OECM-1 cells (FIG. 1B) were incubated for 24 h with ginsenoside M1 (5˜20 μg/ml), ginsenoside Rh2 (5˜20 μg/ml) or vehicle (0.1% DMSO). The live cell numbers were counted by Trypan blue exclusion method. The data were expressed as mean±SD; n=3. *, ** and *** indicate a significant difference at the level of p<0.05, p<0.01 and p<0.001, respectively, compared to vehicle-control cells. (One-way ANOVA with Dunnett's multiple comparisons test).
(§2) Plate 5×10^5 human oral cancer cells SAS per 6-cm dish in 2 ml of culture medium and were grown overnight at 37° C. in a 5% CO2 incubator. The cells were incubated for 24 h with ginsenoside M1 (5˜20 μg/ml), ginsenoside Rh2 (5˜20 μg/ml) or vehicle. Each group contains a final DMSO concentration of 0.1%. Thereafter, the cell numbers were counted by Trypan blue exclusion method. […] The data were expressed as mean±SD; n=3. *, ** and *** indicate a significant difference at the level of p<0.05, p<0.01 and p<0.001, respectively, compared to vehicle-control cells. (One-way ANOVA with Dunnett's multiple comparisons test).

[2] = test system: normal human gingival epithelioid cell line SG; experiment: Toxicity to normal human gingival epithelioid SG cells, Trypan blue exclusion; conditions: 20 μg/ml, 24 h
Protocol: as §1, with “normal human gingival epithelioid” for “oral cancer”, “SG” for “SAS”, “cells” for “cells (FIG. 1A) or OECM-1 cells (FIG. 1B)”, “n=3.” for “n=3. *,”, “of” for “of p<0.05,”
as §2, with “5×10^5 normal” for “5×10^5”, “gingival epithelioid cell line SG” for “oral cancer cells SAS”, “n=3.” for “n=3. *,”, “of” for “of p<0.05,”

[3] = test system: human oral cancer cells OECM-1; experiment: Apoptotic DNA breaks, TUNEL assay by flow cytometry; conditions: 24 h
Protocol: Human oral cancer cell line OECM-1 cells were incubated for 24 h with ginsenoside M1 (10˜20 μg/ml), 50 μM cistaplatin (CDDP) or vehicle (0.1% DMSO). (FIG. 3A) The apoptotic DNA breaks was assayed by terminal deoxynucleotidyl transferase dUTP nick end labeling (TUNEL) assay using flow cytometry. (FIG. 3B) The cell cycle distribution was determined by PI staining using flow cytometry. (FIG. 3C) The apoptosis level was measured by PI/Annexin V double staining assay using flow cytometry. (FIG. 3D) The activation levels of caspase-9 and caspase-3 were measured by detecting the degradation of pro-caspase-9 and pro-caspase-3 using Western blotting. […] (One-way ANOVA with Dunnett's multiple comparisons test).
To gain further insight into the mode of action of ginsenoside M1, three assays targeting hallmarks of apoptosis, namely (1) the apoptotic DNA breaks assayed by terminal deoxynucleotidyl transferase dUTP nick end labeling (TUNEL) assay, (2) the cell cycle assayed by flow cytometry after propidium iodide (PI)-staining nuclei, (3) the PI/Annexin V double staining assay, and (4) caspase activation were performed. Plate 1×10^6 human oral cancer cells OECM-1 per 6-cm dish in 2 ml of culture medium and were grown overnight at 37° C. in a 5% CO2 incubator. The cells were incubated for 24 h with ginsenoside M1 (10˜20 μg/ml), 50 μM cistaplatin (CDDP) or vehicle. Each group contains a final DMSO concentration of 0.1%. Thereafter, three assays were performed. […] The cells in sub-G1 phase increased after treatment with ginsenoside M1 and CDDP. (FIG. 3B). […] The data were expressed as mean±SD; n=3. ** and *** indicate a significant difference at the level of p<0.01 and p<0.001, respectively, compared to vehicle-control cells. (One-way ANOVA with Dunnett's multiple comparisons test).

[4] = test system: human oral cancer SAS cells; experiment: Migration of SAS cells, wound healing assay; conditions: 24 h
Protocol: FIGS. 5A-5B show ginsenoside M1 reduced the migration ability of human oral cancer cells. Human oral cancer cell line SAS cells (FIG. 5A) or OECM-1 cells (FIG. 5B) were cultured in 6-cm dish until the cells reached 100% confluence forming a monolayer. A clear zone was created by scratching using a sterile 200-μl pipette tip. The cells were incubated for 24 h (SAS cells) or 18 h (OECM-1 cells) with ginsenoside M1 (5˜10 μg/ml) or (0.1% DMSO). The migration distance was measured and compared to the vehicle-control cells. The data were expressed as mean±SD; n=3. *** indicates a significant difference at the level of p<0.001, compared to vehicle-control cells. (One-way ANOVA with Dunnett's multiple comparisons test).
The cell migration ability was measured by wound healing assay. Plate 5×10^6 human oral cancer SAS cells or OECM-1 cells per 6-cm dish in 2 ml of culture medium and were grown overnight at 37° C. in a 5% CO2 incubator until the cells reached 100% confluence forming a monolayer. We used a sterile 200-μl pipette tip to create a scratched clear zone on the culture dish, and the wounds photographed by a phase contrast microscope as the baseline. […] The data were expressed as mean±SD; n=3. *** indicates a significant difference at the level of p<0.001, compared to vehicle-control cells. […]

CC(C)=CCC[C@](C)(O[C@@H]1OC(CO)[C@@H](O)[C@@H](O)C1O)[C@H]1CC[C@]2(C)C1[C@H](O)CC1[C@@]3(C)CC[C@H](O)C(C)(C)C3CC[C@]12C (stereo partly drawn) [ginsenoside M1, 20-O-β-D-glucopyranosyl-20(S)-protopanaxadiol]
cell numbers of human oral cancer OECM-1 cells [1]: dose-dependently inhibited | reduction of SG cell number compared to control cells [2]: 50% | apoptotic DNA breaks in OECM-1 cells ([3]; 10 μg/ml): not 10 μg/ml ginsenoside M1 significantly induced | apoptotic DNA breaks in OECM-1 cells ([3]; 20 μg/ml): significantly induced | migration ability of SAS cells ([4]; 5 μg/ml): significantly inhibited | migration ability of SAS cells ([4]; 10 μg/ml): significantly inhibited

Source: patent publication US11524021B2, “Use of ginsenoside M1 for manufacturing medicament for treating oral cancer” (priority 2018, dated 2022)
